According to patent US12138256B2, “Treatment of cardiopulmonary disorders” (Bayer Aktiengesellschaft, priority 2021, dated 2024):

System: pulmonary vascular resistance (PVR)
Assay: Phase 1b, patients with PAH or CTEPH, inhaled single doses, right heart catheterization: PVR and mPAP (C-4.4)
Assay type: in vivo, human
Experimental: Patients with PAH or CTEPH were treated in a clinical phase 1b study with escalating orally inhaled single* doses of 240 μg (2 capsules of 120 μg), 480 μg, 1000 μg, 2000 (2 capsules of 1000 μg) or 4000 μg (4 capsules of 1000 μg) of a dry powder of example 4 (see under D-1, e.g. tables 17 and 20), inserted into a handheld inhalation device, inhaled by deep inhalative breath into the deep parts of the lung. (*single dose means the administration of one dosage form/capsule as well as administration of two or more dosage forms/capsules simultaneously or consecutively within a short time period). The included patients had no background treatment with standard of care (SoC) medication for PAH or CTEPH (such as endothelin antagonists, prostanoids, phosphodiesterase type 5 inhibitor or soluble guanylate cyclase stimulators). Patients in this study underwent invasive right heart catheterization as medically indicated routine diagnostic. Primary objective of the study was to investigate the peak percent reduction from baseline in PVR. Patients had to have a baseline pulmonary artery pressure (mPAP) of ≥25 mmHg and a PVR of ≥400 dyn·sec·cm^−5 (5 Wood Units) and were not to show vaso-responsiveness to initial iNO inhalation testing to be included in the per protocol analysis. Plasma concentrations (pharmacokinetics) of the administered drug at several time points after administration were measured and safety and tolerability was assessed.
The study is divided into two parts, Part A and Part B. In Part A escalating aforementioned single doses were administered to patients without background treatment with standard of care (SoC) medication for PAH or CTEPH (such as endothelin antagonists, prostanoids, phosphodiesterase type 5 inhibitor or soluble guanylate cyclase stimulators). In Part B, after finalization of Part A, a selected dose from PartA will be tested in further patients without background SoC treatment (group 1) and additionally in patients on monotherapy with SoC (group 2) and on dual combination therapy with SoC (group 3).
The PVR is a derived parameter from parameters directly measured during the right heart catheterization procedure. The direct parameters included in the calculation are: mean pulmonary arterial pressure [mmHg](mPAP), pulmonary capillary wedge pressure [mmHg] (PCWP), and cardiac output [l/min] (CO). The PVR is calculated according to the formula: PVR [dyn*see*cm^−5]=80*(mPAP-PCWP)/CO.
Overall 38 patients received a dose of dry powder of example 4. A total of 4 patients in each dose group were included into the per protocol set as planned (total 20 patients). A dose-dependent mean change of PVR from baseline could be clearly observed peaking in an enduring mean change of approximately −30% in the 2000 μg and 4000 μg groups (for details of PVR see FIG. 82 and table C4.4.1). The decreases in PVR were predominantly driven by decreases in pulmonary arterial pressure (for details of mean PAP see FIG. 83 and table C4.4.2). A mean peak change level of −20%—as the predefined relevant threshold level—was clearly exceeded peaking in the 2000 μg and 4000 μg groups (mean peak changes were: −21.0%, −16.1%, −25.9%, −38.1%, −36.3% for 240, 480, 1000, 2000, and 4000 μg, respectively). The magnitude of mean change in PVR of −30% from baseline was at the same level as for the inhaled competitor Treprostinil (Tyvaso®) after single administration in a historical comparison [Voswinckel et al, Journal of American College of Cardiology Vol. 48, No. 8, 2006 Oct. 17, 2006:1672-81]. However, the effect after example 4 application was advantageously sustained with no decrease in response until the end of the measurement period of 3 h (a measurement period of >3 h was technically not feasible for the patients with right heart catheter in the study). […] Increase of systemic cGMP (cyclic Guanosine Monophosphate) confirmed strong target engagement of sGC activation. […]

[1] = 240 μg, 0 D 00 H 00 M (baseline)
[2] = 480 μg, 0 D 00 H 00 M (baseline)
[3] = 1000 μg, 0 D 00 H 00 M (baseline)
[4] = 2000 μg, 0 D 00 H 00 M (baseline)
[5] = 4000 μg, 0 D 00 H 00 M (baseline)

What does the source list for `O=C(O)c1ccc(CCN(CCc2ccccc2OCc2ccc(-c3ccc(C(F)(F)F)cc3)cc2Cl)[C@H]2CCCc3nc(C(=O)O)ccc32)cc1` [example 4, (5S)-{[2-(4-Carboxyphenyl)ethyl][2-(2-{[3-chloro-4′-(trifluoromethyl)biphenyl-4-yl]methoxy}phenyl)-ethyl]amino}-5,6,7,8-tetrahydroquinoline-2-carboxylic acid]?
mean peak change of PVR from baseline (240 μg): −21.0%; mean pulmonary arterial pressure (mPAP), mean ± SD [1]: 42.8 ± 11.1 mmHg; pulmonary vascular resistance (PVR), mean ± SD [1]: 788.338 ± 416.914 dyn·sec·cm^−5; mean pulmonary arterial pressure (mPAP), mean ± SD (240 μg, 0 D 00 H 30 M): 42.5 ± 11.0 mmHg; pulmonary vascular resistance (PVR), mean ± SD (240 μg, 0 D 00 H 30 M): 749.012 ± 398.928 dyn·sec·cm^−5; mean pulmonary arterial pressure (mPAP), mean ± SD (240 μg, 0 D 01 H 00 M): 44.3 ± 10.4 mmHg; pulmonary vascular resistance (PVR), mean ± SD (240 μg, 0 D 01 H 00 M): 734.427 ± 396.799 dyn·sec·cm^−5; mean pulmonary arterial pressure (mPAP), mean ± SD (240 μg, 0 D 01 H 30 M): 43.0 ± 8.0 mmHg; pulmonary vascular resistance (PVR), mean ± SD (240 μg, 0 D 01 H 30 M): 726.362 ± 364.099 dyn·sec·cm^−5; mean pulmonary arterial pressure (mPAP), mean ± SD (240 μg, 0 D 02 H 00 M): 39.5 ± 7.9 mmHg; pulmonary vascular resistance (PVR), mean ± SD (240 μg, 0 D 02 H 00 M): 710.844 ± 410.668 dyn·sec·cm^−5; mean pulmonary arterial pressure (mPAP), mean ± SD (240 μg, 0 D 02 H 30 M): 42.0 ± 6.5 mmHg; pulmonary vascular resistance (PVR), mean ± SD (240 μg, 0 D 02 H 30 M): 716.209 ± 419.311 dyn·sec·cm^−5; mean pulmonary arterial pressure (mPAP), mean ± SD (240 μg, 0 D 03 H 00 M): 39.0 ± 4.2 mmHg; pulmonary vascular resistance (PVR), mean ± SD (240 μg, 0 D 03 H 00 M): 657.829 ± 291.191 dyn·sec·cm^−5; mean peak change of PVR from baseline (480 μg): −16.1%; mean pulmonary arterial pressure (mPAP), mean ± SD [2]: 55.0 ± 8.6 mmHg; pulmonary vascular resistance (PVR), mean ± SD [2]: 1055.863 ± 317.077 dyn·sec·cm^−5; mean pulmonary arterial pressure (mPAP), mean ± SD (480 μg, 0 D 00 H 30 M): 52.3 ± 8.4 mmHg; pulmonary vascular resistance (PVR), mean ± SD (480 μg, 0 D 00 H 30 M): 1003.264 ± 300.639 dyn·sec·cm^−5; mean pulmonary arterial pressure (mPAP), mean ± SD (480 μg, 0 D 01 H 00 M): 53.8 ± 9.1 mmHg; pulmonary vascular resistance (PVR), mean ± SD (480 μg, 0 D 01 H 00 M): 1007.504 ± 290.883 dyn·sec·cm^−5; mean pulmonary arterial pressure (mPAP), mean ± SD (480 μg, 0 D 01 H 30 M): 55.0 ± 8.0 mmHg; pulmonary vascular resistance (PVR), mean ± SD (480 μg, 0 D 01 H 30 M): 1031.647 ± 252.210 dyn·sec·cm^−5; mean pulmonary arterial pressure (mPAP), mean ± SD (480 μg, 0 D 02 H 00 M): 52.5 ± 7.9 mmHg; pulmonary vascular resistance (PVR), mean ± SD (480 μg, 0 D 02 H 00 M): 908.704 ± 252.569 dyn·sec·cm^−5; mean pulmonary arterial pressure (mPAP), mean ± SD (480 μg, 0 D 02 H 30 M): 54.0 ± 9.7 mmHg; pulmonary vascular resistance (PVR), mean ± SD (480 μg, 0 D 02 H 30 M): 1038.344 ± 263.837 dyn·sec·cm^−5; mean pulmonary arterial pressure (mPAP), mean ± SD (480 μg, 0 D 03 H 00 M): 56.0 ± 11.1 mmHg; pulmonary vascular resistance (PVR), mean ± SD (480 μg, 0 D 03 H 00 M): 909.265 ± 259.510 dyn·sec·cm^−5; mean peak change of PVR from baseline (1000 μg): −25.9%; mean pulmonary arterial pressure (mPAP), mean ± SD [3]: 34.3 ± 4.9 mmHg; pulmonary vascular resistance (PVR), mean ± SD [3]: 608.898 ± 135.153 dyn·sec·cm^−5; mean pulmonary arterial pressure (mPAP), mean ± SD (1000 μg, 0 D 00 H 30 M): 33.8 ± 7.5 mmHg; pulmonary vascular resistance (PVR), mean ± SD (1000 μg, 0 D 00 H 30 M): 645.387 ± 211.946 dyn·sec·cm^−5; mean pulmonary arterial pressure (mPAP), mean ± SD (1000 μg, 0 D 01 H 00 M): 31.8 ± 7.4 mmHg; pulmonary vascular resistance (PVR), mean ± SD (1000 μg, 0 D 01 H 00 M): 558.324 ± 169.860 dyn·sec·cm^−5; mean pulmonary arterial pressure (mPAP), mean ± SD (1000 μg, 0 D 01 H […]): 32.0 ± 8.9 mmHg; pulmonary vascular resistance (PVR), mean ± SD (1000 μg, 0 D 01 H […]): 542.130 ± 187.227 dyn·sec·cm^−5; mean pulmonary arterial pressure (mPAP), mean ± SD (1000 μg, 0 D 02 H 00 M): 32.3 ± 9.0 mmHg; pulmonary vascular resistance (PVR), mean ± SD (1000 μg, 0 D 02 H 00 M): 487.951 ± 144.546 dyn·sec·cm^−5; mean pulmonary arterial pressure (mPAP), mean ± SD (1000 μg, 0 D 02 H […]): 33.5 ± 10.7 mmHg; pulmonary vascular resistance (PVR), mean ± SD (1000 μg, 0 D 02 H […]): 537.812 ± 204.640 dyn·sec·cm^−5; pulmonary vascular resistance (PVR), mean ± SD (1000 μg, 0 D 03 H 00 M): 535.636 ± 235.786 dyn·sec·cm^−5; mean peak change of PVR from baseline (2000 μg): −38.1%; mean change of PVR from baseline (2000 μg and 4000 μg groups, single inhaled dose, per protocol set N=4 each): approximately −30%; mean pulmonary arterial pressure (mPAP), mean ± SD [4]: 33.5 ± 3.4 mmHg; pulmonary vascular resistance (PVR), mean ± SD [4]: 468.608 ± 20.537 dyn·sec·cm^−5; mean pulmonary arterial pressure (mPAP), mean ± SD (2000 μg, 0 D 00 H 30 M): 33.3 ± 6.3 mmHg; pulmonary vascular resistance (PVR), mean ± SD (2000 μg, 0 D 00 H 30 M): 464.586 ± 58.200 dyn·sec·cm^−5; mean pulmonary arterial pressure (mPAP), mean ± SD (2000 μg, 0 D 01 H 00 M): 30.8 ± 5.6 mmHg; pulmonary vascular resistance (PVR), mean ± SD (2000 μg, 0 D 01 H 00 M): 421.730 ± 81.602 dyn·sec·cm^−5; mean pulmonary arterial pressure (mPAP), mean ± SD (2000 μg, 0 D 01 H 30 M): 28.5 ± 7.3 mmHg; pulmonary vascular resistance (PVR), mean ± SD (2000 μg, 0 D 01 H 30 M): 340.782 ± 82.566 dyn·sec·cm^−5; mean pulmonary arterial pressure (mPAP), mean ± SD (2000 μg, 0 D 02 H 00 M): 27.0 ± 6.1 mmHg; pulmonary vascular resistance (PVR), mean ± SD (2000 μg, 0 D 02 H 00 M): 339.924 ± 105.884 dyn·sec·cm^−5; mean pulmonary arterial pressure (mPAP), mean ± SD (2000 μg, 0 D 02 H 30 M): 27.3 ± 6.0 mmHg; pulmonary vascular resistance (PVR), mean ± SD (2000 μg, 0 D 02 H 30 M): 338.404 ± 87.381 dyn·sec·cm^−5; mean pulmonary arterial pressure (mPAP), mean ± SD (2000 μg, 0 D 03 H 00 M): 27.5 ± 5.2 mmHg; pulmonary vascular resistance (PVR), mean ± SD (2000 μg, 0 D 03 H 00 M): 327.284 ± 25.882 dyn·sec·cm^−5; mean peak change of PVR from baseline (4000 μg): −36.3%; mean pulmonary arterial pressure (mPAP), mean ± SD [5]: 46.0 ± 8.1 mmHg; pulmonary vascular resistance (PVR), mean ± SD [5]: 713.998 ± 117.204 dyn·sec·cm^−5; mean pulmonary arterial pressure (mPAP), mean ± SD (4000 μg, 0 D 00 H 30 M): 43.0 ± 4.6 mmHg; pulmonary vascular resistance (PVR), mean ± SD (4000 μg, 0 D 00 H 30 M): 616.894 ± 97.774 dyn·sec·cm^−5; mean pulmonary arterial pressure (mPAP), mean ± SD (4000 μg, 0 D 01 H 00 M): 41.3 ± 4.6 mmHg; pulmonary vascular resistance (PVR), mean ± SD (4000 μg, 0 D 01 H 00 M): 542.417 ± 97.103 dyn·sec·cm^−5; mean pulmonary arterial pressure (mPAP), mean ± SD (4000 μg, 0 D 01 H 30 M): 40.3 ± 5.1 mmHg; pulmonary vascular resistance (PVR), mean ± SD (4000 μg, 0 D 01 H 30 M): 573.812 ± 123.865 dyn·sec·cm^−5; mean pulmonary arterial pressure (mPAP), mean ± SD (4000 μg, 0 D 02 H 00 M): 40.0 ± 5.3 mmHg; pulmonary vascular resistance (PVR), mean ± SD (4000 μg, 0 D 02 H 00 M): 501.07 ± 97.979 dyn·sec·cm^−5; mean pulmonary arterial pressure (mPAP), mean ± SD (4000 μg, 0 D 02 H […]): 39.8 ± 3.0 mmHg; pulmonary vascular resistance (PVR), mean ± SD (4000 μg, 0 D 02 H […]): 526.648 ± 144.679 dyn·sec·cm^−5; mean pulmonary arterial pressure (mPAP), mean ± SD (4000 μg, 0 D 03 H 00 M): 39.8 ± 4.1 mmHg; pulmonary vascular resistance (PVR), mean ± SD (4000 μg, 0 D 03 H 00 M): 493.103 ± 130.480 dyn·sec·cm^−5; duration of sustained PVR effect with no decrease in response (end of the measurement period): ≥ 3 h; tolerability (single inhaled doses 240 to 4000 μg): Overall good tolerability was seen including the highest dose of 4000 μg
